This note sets out measurements from US8404651B2, “Compositions and methods for treating viral infections” (priority 2008, dated 2013).

In series [1] the test system is TA1537. Kind of series: In vitro bacterial mutagenicity assay (pre-incubation), strain TA1537. Conditions: positive control, TA1537, S9 0, 10 μg/plate. As for the experimental part: (§1) Dispense 100 microliter aliquots of the appropriate bacterial cultures into sample tubes stored on ice. Dispense aliquots of the vehicle, positive controls or dose formulations into the appropriate sample tubes. 2 mL top Agar and HBT cap was added to the sample tube, inverted three times and poured into MG plate. The lid was replaced on the plate and left on a level surface to let the agar harden. The plates were incubated in an incubator for 48 to 72 h. The background lawn and count the number of revertants was checked for each plate.

Series [2] deals with TA100. The series can be described thus: In vitro bacterial mutagenicity assay (pre-incubation), strain TA100. Conditions: positive control, TA100, S9 0, 0.5 μg/plate. As for the experimental part:
as §1

The test system of series [3] is TA1535. Kind of series: In vitro bacterial mutagenicity assay (pre-incubation), strain TA1535. Conditions: positive control; for Number of revertants x1, x2, x3: individual plates; for Fold response: vs vehicle control. As for the experimental part:
as §1

For series [4], the system named is WP2 uvrA. Kind of series: In vitro bacterial mutagenicity assay (pre-incubation), strain WP2 uvrA. Conditions: positive control, S9 +, 15 μg/plate. The protocol:
as §1

The subject of series [5] is HCV replicon cell line, AVA5 [sub-genomic (CON1), genotype 1b]. Kind of series: microbe, parasite or virus in culture. The series is classed as cell-based. Conditions: genotype 1B; for EC50: read-out: Control 2 (μM) EC50; for EC90: read-out: Control 2 (μM) EC90. The protocol: (§2) Primary anti-HCV assay-Antiviral activity against HCV was assessed in a 3-day assay (Okuse, et al., 2005; Antiviral. Res. 65:23; Korba, et al., 2008, Antiviral Res. 77:56) using the stably-expressing HCV replicon cell line, AVA5 [sub-genomic (CON1), genotype 1b](Blight, et al., 2000, Science 290:1972) maintained as sub-confluent cultures on 96-well plates. Antiviral activity was determined by blot hybridization analysis of intracellular HCV RNA (normalized to the level of cellular B-actin RNA in each culture sample). Cytotoxicity was assessed by neutral red dye uptake in cultures maintained in parallel plates.
(§3) EC50, EC90, and CC50 values were calculated by linear regression analysis (MS EXCEL®, QUATTROPRO®) using data combined from all treated cultures Korba & Gerin, 1992, Antivir. Res. 19:55; Okuse, et al., 2005, Antivir. Res. 65:23). Standard deviations for EC50 and EC90 values were calculated from the standard errors generated by the regression analyses. […] The Selectivity index (S.I.) was calculated as CC50/EC50. Recombinant human interferon 2b (PBL laboratories, Inc.) was used as an assay control.
(§4) For each combination of agents, three concentration ratios, centered on the use of the compounds at equipotent antiviral concentrations, were used. A dilution series (six three-fold-concentration steps, beginning at the approximate EC90) was then generated with the concentration ratio of the two agents remaining the same in each dilution step. Toxicity analysis was performed as described above for the monotherapies. Analysis of drug interactions in the combination studies was determined by the use of the […] program (Biosoft, Inc., Cambridge, United Kingdom). This program evaluates synergy, additivity, or antagonism by use of several methodologies, including that of Chou and Talalay with a statistical analysis employing the Monte Carlo technique to provide confidence limits, fraction-affected-confidence interval (FA-CI) plots, isobolograms, and median-effect plots. (Belenkii, M. S. Schinazi, R. A method for the analysis of combination therapies with statistical analysis. Antiviral Res. 25, 11, 2005).

A short description of series [6]: Cytotoxicity by neutral red dye uptake in replicon cultures in parallel plates. Conditions: human, AVA5 HCV replicon cells (sub-genomic CON1, genotype 1b). The protocol:
as §2, §3, §4
(In antiviral work, replicon cells carry a viral genome segment that copies itself.)

In series [7] the test system is replicon cell line containing H/FL-Neo (genotype 1a (H77), full length construct). The series can be described thus: Secondary anti-HCV assay: genotype 1a replicon, format of the primary assay. The series is classed as cell-based. Conditions: genotype 1a replicon. An excerpt:
Res. 19:55; Okuse, et al., 2005, Antivir. Res. 65:23).
Secondary anti-HCV assay—This assay assesses activity against different HCV genotypes using the format described for the primary assay. Activity against the genotype 1b HCV is included for comparison. Currently available is a replicon cell line containing H/FL-Neo (genotype 1a (H77), full length construct) (Blight, et al., 2003, J. Virol. 77:3181).

For series [8], the system named is HCV replicon cell line, AVA5. The series can be described thus: Cytotoxicity by neutral red dye uptake in replicon cultures in parallel plates. Conditions: read-out: Control 2 (μM) CC50; genotype 1B. As for the experimental part: as §2, §3, §4
The test system of series [9] is TA98. Kind of series: In vitro bacterial mutagenicity assay (pre-incubation), strain TA98. Conditions: positive control, TA98, S9 0, 1 μg/plate. The protocol: as §1

pEC50: −log10 of the molar value. “And” between values parts separate entries of the source, which are not always exact repeats. Equal values may be shown once. Read-outs that look alike come from different tables or passages of the source.

Regarding `Nc1c2ccccc2nc2ccccc12` [Compound 9AC, reference compound], the “Number of revertants mean” value in series [1] was 741. In addition, the “Number of revertants x1, x2, x3” value in series [1] (individual plates) is 728 and 910 and 585. Moreover, the Fold response in series [1] (vs vehicle control) was found to be 57.
`[N-]=[N+]=[N-].[Na+]` [NaAz, reference compound]: the “Number of revertants mean” value in series [2] came to 560; in [3] (TA1535, S9 0, 0.5 μg/plate) it was 321. Also, the “Number of revertants x1, x2, x3” value is 568 and 569 and 543 in series [2] (individual plates); 340 and 312 (2×) in series [3] (TA1535, S9 0, 0.5 μg/plate). Moreover, the Fold response in series [2] (vs vehicle control) is listed as 5.0; in series [3] (TA1535, S9 0, 0.5 μg/plate), 12.
As to `Nc1ccc2cc3ccccc3cc2c1` [Compound 2AA, reference compound], the “Number of revertants mean” value is reported as 373 in series [4] and 254 in series [3] (TA1535, S9 +, 5 μg/plate). Also, the “Number of revertants x1, x2, x3” value in [4] (individual plates) is 476 and 357 and 285; in [3] (TA1535, S9 +, 5 μg/plate), 263 and 242 and 257. Further, the Fold response worked out at 9.6 in series [4] (vs vehicle control) and 11 in series [3] (TA1535, S9 +, 5 μg/plate).
`CCC[C@H](NC(=O)[C@@H]1[C@H]2CCC[C@H]2CN1C(=O)[C@@H](NC(=O)[C@@H](NC(=O)c1cnccn1)C1CCCCC1)C(C)(C)C)C(=O)C(=O)NC1CC1` [VX-950]: in series [5] (Hepatitis C virus, Ava5), the EC50 stood at 0.249 µM and the EC90 is 0.892 µM. Also, the 50% cytotoxic concentration (CC50) at 3 day in series [6] was 88 µM.
As to `COC1C(OP(=O)(OC[C@H]2O[C@@H](n3cnc4c(N)ncnc43)CC2O)SCOC(=O)C(C)(C)C)[C@@H](CO)O[C@H]1n1ccc(=O)[nH]c1=O` (some centres unmarked) [Compound 1], the pEC50 in series [7] (2-fold depression of intracellular HCV RNA, read-out: EC50 HCV Type 1A) is 5.54. Further, the EC90 in [7] (10-fold depression of intracellular HCV RNA, read-out: EC90 HCV type 1A) is 8.5 µM.
As to `C[C@@]1(O)[C@H](O)[C@@H](CO)O[C@H]1n1ccc(N)nc1=O` [2′CmeCyt], in [5], the EC50 is 1.4 µM and the EC90 was 5.3 µM. The cytotoxic concentration (CC50) in [8] is > 300 µM.
As to `O=[N+]([O-])c1ccc2c(c1)Cc1ccccc1-2` [Compound 2NF, reference compound], the “Number of revertants mean” value in series [9] is listed as 139. Also, the “Number of revertants x1, x2, x3” value in series [9] (individual plates) is 151 and 114 and 153. For the same compound, in series [9] (vs vehicle control), the Fold response is 4.5.

As usually defined, the EC50 is the concentration giving half of the maximal effect. The EC90 is the concentration needed for an effect of 90%. For orientation: CC50 means the concentration that lowers cell viability or growth by half. As a reminder, the pEC50 is the negative decadic logarithm of the EC50, by convention in mol/L.
